This assay can be described thus: Inhibition of recombinant human IDO1 expressed in yeast assessed as yeast growth restoration after 40 to 45 hrs in presence of galactose.

Usually EC50 stands for the concentration that produces a half-maximal response.

In the case of `CN1CCN(C(CO)Cc2ccccc2)CC1` (stereo unspecified), the EC50 came to 2000 nM.

The values are drawn from BindingDB's records for doi:10.1016/j.ejmech.2016.12.029 (University of Auckland, 2017).
